Measurements published in a melting point compilation (Tetko et al.).

First: CC(C)(C)OC(=O)N1C(C(=O)O)CC2CCCCC21 (stereo unspecified)
Second: CC(C)(C)OC(=O)NCC1CC2CCCC(C1)N2 (stereo unspecified)
The melting point of the first is lower: 133 to 135 °C for the first, 219 to 221 °C for the second.

First: Cc1nn(CC(C)C)c(C)c1CC(=O)O
Second: Cc1nn(CCO)c(C(F)(F)F)c1C(=O)O
The melting point of the first is lower: 106 to 110 °C for the first, 151 to 153 °C for the second.

First: NC(=O)c1ccc(CNc2cccc(F)c2)cc1
Second: CS(=O)(=O)c1cccc(C(N)c2ccc(F)cc2)c1 (stereo unspecified)
The melting point of the first is higher: 155 to 157 °C for the first, 88 to 90 °C for the second.

First: OC(O)c1nc(-c2ccccc2)no1
Second: COCCn1c(S)nnc1-c1ccccc1
The melting point of the first is lower: 103 to 105 °C for the first, 133 to 135 °C for the second.

First: CC(C)Cc1cc(N)n(C)n1
Second: CC(C)(C)n1cc(C#N)cc1N
The melting point of the first is lower: 90 to 92 °C for the first, 105 to 107 °C for the second.

First: Sc1nnc(C2CC2)n1C1CC1
Second: Nc1nnc2n1CCCC2
The melting point of the first is lower: 138 to 140 °C for the first, 270 to 272 °C for the second.

First: N#Cc1ccc(CS(=O)(=O)CC(=O)O)cc1
Second: N#Cc1ccc(OCC(=O)O)c(Cl)c1
The melting point of the first is higher: 197 to 199 °C for the first, 178 to 180 °C for the second.

Compared with CC(=O)CSc1ccccc1[N+](=O)[O-], NS(=O)(=O)c1c(F)cccc1[N+](=O)[O-] is higher in melting point: 74 to 76 °C for the first, 163 to 165 °C for the second.

First: COc1ccc2nc(C(=O)O)ccc2c1
Second: CC(=O)Nc1cc2ccccc2cc1C(=O)O
The melting point of the first is lower: 184 to 186 °C for the first, 190 to 192 °C for the second.

First: O=C(O)C(Oc1cc(Cl)ccc1Cl)c1ccccc1 (stereo unspecified)
Second: O=C(O)c1ccc(-c2nc3ccccc3s2)o1
The melting point of the first is lower: 144 to 146 °C for the first, 180 to 188 °C for the second.

First: Cc1ccc(N2C(=O)NC(=O)C2C)cc1 (stereo unspecified)
Second: CCOc1ccc(C2(C)NC(=O)NC2=O)cc1 (stereo unspecified)
The melting point of the first is lower: 110 to 112 °C for the first, 190 to 192 °C for the second.

First: O=[N+]([O-])c1cc(S(=O)(=O)N2CCOCC2)ccc1Cl
Second: O=C(CCl)Nc1cccc(S(=O)(=O)N2CCOCC2)c1
The melting point of the first is lower: 153 to 155 °C for the first, 157 to 159 °C for the second.

First: CC(C)c1nn(C2CCS(=O)(=O)C2)cc1C(=O)O (stereo unspecified)
Second: CC(C)S(=O)(=O)c1ccc(F)c(C(=O)O)c1
The melting point of the first is higher: 202 to 204 °C for the first, 139 to 141 °C for the second.

Compared with Fc1cccc2cc(I)cnc12, Nc1cccc(-c2ncco2)c1 is lower in melting point: 77 to 79 °C for the first, 61 to 63 °C for the second.

Compared with CC(C)(C)c1cc([N+](=O)[O-])c(O)c(C(C)(C)C)c1, Nc1cc2c(cc1[N+](=O)[O-])OCCO2 is higher in melting point: 58 to 60 °C for the first, 150 to 152 °C for the second.

First: CS(=O)(=O)Nc1nc2ccc(N)cc2s1
Second: Nc1ccc2nc(NC(=O)CN3CCOCC3)sc2c1
The melting point of the first is higher: 281 to 283 °C for the first, 228 to 230 °C for the second.

First: C=CCc1cc(OCC)ccc1O
Second: CCOC(=O)CNc1cc(Cl)cc(Cl)c1
The melting point of the first is higher: 135 to 137 °C for the first, 99 to 101 °C for the second.

First: Cc1nc(CSCC(=O)O)cs1
Second: Cc1cc(C)c(C(=O)CCCC(=O)O)c(C)c1
The melting point of the first is higher: 155 to 157 °C for the first, 75 to 77 °C for the second.

First: Cc1ccc(C(=O)O)c(O)c1O
Second: O=C(O)c1ccc2nc(S)oc2c1
The melting point of the first is lower: 204 to 206 °C for the first, 295 to 297 °C for the second.

First: COCC1(O)CCNCC1
Second: Cc1ccc(C)c(S(=O)(=O)N2CCN(C(=O)CCC(=O)O)CC2)c1
The melting point of the first is lower: 54 to 56 °C for the first, 143 to 145 °C for the second.

Compared with O=C(CC1SC(N2CCCCC2)=NC1=O)Nc1cccc(C(=O)O)c1 (stereo unspecified), O=C1CCCSc2ccc(Cl)cc21 is lower in melting point: 188 to 190 °C for the first, 49 to 51 °C for the second.

First: Nc1nnc(Cc2ccccc2F)o1
Second: Nc1ccc(-c2nc3ccccc3s2)cn1
The melting point of the first is lower: 167 to 169 °C for the first, 187 to 189 °C for the second.

Compared with Cc1coc(-c2cc(N)ccc2C)n1, Cc1ccc(C(=O)c2c(N)sc3c2CCC3)c(C)c1 is higher in melting point: 52 to 54 °C for the first, 163 to 165 °C for the second.

First: Nc1ccncc1C(=O)C(F)(F)F
Second: NC(=O)c1ccc(S(=O)(=O)Cl)cc1
The melting point of the first is lower: 170 to 172 °C for the first, 188 to 190 °C for the second.

First: O=C(O)CCCCN1C(=O)C=CC1=O
Second: CCOC(=O)c1c(-c2ccccc2)csc1NC(=O)CCCl
The melting point of the first is higher: 84 to 86 °C for the first, 64 to 66 °C for the second.

First: N#Cc1ccc2c(n1)CCCC2
Second: Cc1ccc(C2CCCCC2O)cc1 (stereo unspecified)
The melting point of the first is lower: 69 to 71 °C for the first, 72 to 74 °C for the second.

Compared with COC(=O)C(=O)CC(=O)c1ccc(-c2ccccc2)cc1, COC(=O)C(=O)CC(=O)c1ccc(Br)cc1 is lower in melting point: 142 to 144 °C for the first, 104 to 106 °C for the second.

Compared with Nc1cc(-c2cc(F)cc(F)c2)[nH]n1, Nc1cc(Cl)c(-c2cc(Cl)c(N)cc2Cl)cc1Cl is higher in melting point: 110 to 112 °C for the first, 135 to 140 °C for the second.

Compared with Cc1ccc2[nH]c(=O)n3nc(C4CC4)nc3c2c1, O=C1CCC(Cc2ccc(Cl)cc2)C(=O)N1 (stereo unspecified) is lower in melting point: 260 to 262 °C for the first, 150 to 152 °C for the second.

Sc1nnnn1-c1cccc(Cl)c1 and Cc1sc2ccc(Cl)cc2c1S(=O)(=O)Cl fall in the same range of melting point: 148 to 150 °C for the first, 148 to 150 °C for the second.

First: CNc1ccccc1C#N
Second: O=C(CCl)c1c[nH]c2ccccc12
The melting point of the first is lower: 66 to 68 °C for the first, 183 to 185 °C for the second.

First: NS(=O)(=O)CCCC(F)(F)F
Second: CCOCCCNC(=S)NCc1ccc(OC)cc1
The melting point of the first is higher: 66 to 68 °C for the first, 39 to 41 °C for the second.

First: NCc1ccc(CN2CCC(O)CC2)cc1
Second: O=C1CCN(C(=O)C2CC2)CC1
The melting point of the first is higher: 128 to 130 °C for the first, 72 to 74 °C for the second.

Compared with O=C(O)C1SCCc2ccccc21 (stereo unspecified), Cc1ccc(-c2nn(-c3ccccc3)cc2C=O)cc1C is lower in melting point: 130 to 132 °C for the first, 102 to 104 °C for the second.

First: CCOC(=O)c1[nH]ncc1C=O
Second: O=Cc1sc(Cl)nc1Cl
The melting point of the first is higher: 168 to 170 °C for the first, 38 to 42 °C for the second.

Molecule CC1CC(N)=NO1 (stereo unspecified) has a melting point of 95 to 97 °C.
